# Data published in patent US5134137A, “Cephalosporin antibiotics” (The Upjohn Company, priority 1990, dated 1992).
# Where two headings read alike, the source gives them in different places.
# How the values were obtained:
# Format in all cases: cell-based
# [1] = test system: Corynebacterium pyogenes; assay: MIC, agar dilution, Corynebacterium pyogenes; conditions: strain 213-2; read-out: MIC
# Procedure: (§1) Stock solution of each test antibiotic compound were prepared to have a concentration of 2 mg. of the test compound per milliliter in sterile water of 0.1M ammonium acetate solution. The amount of each compound used was adjusted for base compound activity as calculated from the purity data for the selected batch of compound.
# (§2) The dilution procedure described by Washington and Sutter [Manual of Clinical Microbiology, 3rd, Edit. (Lennett, E. H. et al, Eds.), pp. 453-458 (1980), American Society for Microbiology, Washington, D.C.] was modified so that serial concentrations of 128 to 0.0625 microgram/ml. in sterile water was obtained. Then 1.5 ml. aliquots of these test antibiotic dilution mixtures are added to 13.5 molten (50° C.) Mueller-Hinton agar. Each resulting mixture is poured into 15×100 mm, sterile Petri plates and allowed to dry at room temperature overnight.
# (§3) Test bacterial cultures are maintained at -70° C. on glass beads. [See R. J. Yancey, Jr. et al, Amer. Jr. of Vet. Research, 48, No. 7, pp. 1050-1053, (1987)]. At least one bacteria-laden bead per culture is dropped into one ml. of brain heart infusion (BHI) broth for overnight culture at 37° C. in 5% V/V carbon dioxide in air atmosphere.
# (§4) On the data of assay, 2 to 8 drops of the bacterial broth cultures are transferred to fresh BHI broth (1 ml.) and the mixture is incubated for 4 to 6 hours at 37° C. in a 5% V/V carbon dioxide in air atmosphere. The resulting cultures are then diluted to match a 0.5 MacFarland standard and further diluted 1:20 V/V with sterile saline solution.
# (§5) A 0.001 ml. drop of the resulting mixture, containing approximately 10^3 to 10^4 colony forming units (CFU) of each test bacteria organism, is dispensed onto the surface of the test antibiotic compound test plates with a Steer's type replicator. The resulting innoculated plates are incubated 16 to 18 hours at 37° C. with a carbon dioxide atmosphere.
# (§6) Stock solutions of each test antibiotic compound were prepared to have a concentration of 2 mg. of the test compound per milliliter in sterile water of 0.1M ammonium acetate solution. The amount of each compound used was adjusted for base compound activity as calculated from the purity data for the selected batch of compound.
# (§7) The dilution procedure described by Washington and Sutter [Manual of Clinical Microbiology, 3rd, Edit. (Lennett, E. H. et al, Eds.), pp. 453-458 (1980), American Society for Microbiology, Washington, D.C.] was modified so that serial concentrations of 128 to 0.0625 microgram/ml. in sterile water was obtained. Then 1.5 ml. aliquots of these test antibiotic dilution mixtures are added to 13.5 molten (50° C.) Mueller-Hinton agar. Each resulting mixture is poured into 15×100 mm. sterile Petri plates and allowed to dry at room temperature overnight.
# (§8) The dilution procedure described by Washington and Sutter [Manual of Clinical Microbiology, 3rd, Edit. (Lennett, E. H. et al, Eds.), pp. 453-458 (1980), American Society for Microbiology. Washington, D.C.] was modified so that serial concentrations of 128 to 0.0625 microgram/ml. in sterile water was obtained. Then 1.5 ml. aliquots of these test antibiotic dilution mixtures are added to 13.5 molten (50° C.) Mueller-Hinton agar. Each resulting mixture is poured into 15×100 mm. sterile Petri plates and allowed to dry at room temperature overnight.
# (§9) Test bacterial culture are maintained at -70° C. on glass beads. [See R. J. Yancey, Jr. et al, Amer. Jr. of Vet. Research, 48, No. 7, pp. 1050-1053, (1987)]. At least one bacteria-laden bead per culture is dropped into one ml. of brain heart infusion (BHI) broth for overnight culture at 37° C. in 5% V/V carbon dioxide in air atmosphere.
# (§10) On the day of assay, 2 to 8 drops of the bacterial broth cultures are transferred to fresh BHI broth (1 ml.) and the mixture is incubated for 4 to 6 hours at 37° C. in a 5% V/V carbon dioxide in air atmosphere. […]
# [2] = test system: Micrococcus luteus; assay: MIC, agar dilution, Micrococcus luteus; conditions: Micrococcus luteus; strain UC130; read-out: MIC
# Procedure: as §1, §2, §3, §4, §5, §6, §7, §8, §9, §10
# [3] = test system: Salmonella choleraesuis; assay: MIC, agar dilution, Salmonella choleraesuis; conditions: Salmonella enterica, read-out: MIC
# Procedure: as §1, §2, §3, §4, §5, §6, §7, §8, §9, §10
# [4] = test system: Streptococcus suis; assay: MIC, agar dilution, Streptococcus suis; conditions: Streptococcus suis; strain 650-2; read-out: MIC
# Procedure: as §1, §2, §3, §4, §5, §6, §7, §8, §9, §10
# [5] = test system: Streptococcus uberis; assay: MIC, agar dilution, Streptococcus uberis; conditions: Streptococcus uberis, read-out: MIC
# Procedure: as §1, §2, §3, §4, §5, §6, §7, §8, §9, §10
# [6] = test system: Salmonella typhimurium; assay: MIC, agar dilution, Salmonella typhimurium; conditions: Salmonella enterica, read-out: MIC
# Procedure: as §1, §2, §3, §4, §5, §6, §7, §8, §9, §10
# [7] = test system: Bordetella bronchiseptica; assay: MIC, agar dilution, Bordetella bronchiseptica; conditions: Bordetella bronchiseptica; strain UC6313; read-out: MIC
# Procedure: as §1, §2, §3, §4, §5, §6, §7, §8, §9, §10
# [8] = test system: Streptococcus bovis; assay: MIC, agar dilution, Streptococcus bovis; conditions: Streptococcus equinus; strain UC6281; read-out: MIC
# Procedure: as §1, §2, §3, §4, §5, §6, §7, §8, §9, §10
# [9] = test system: Enterococcus faecalis; assay: MIC, agar dilution, Enterococcus faecalis; conditions: Enterococcus faecalis; strain UC694; read-out: MIC
# Procedure: as §6, §2, §3, §4, §5, §1, §7, §8, §9, §10
# [10] = test system: Enterococcus faecium; assay: MIC, agar dilution, Enterococcus faecium; conditions: Enterococcus faecium; strain UC241; read-out: MIC
# Procedure: as §6, §2, §3, §4, §5, §1, §7, §8, §9, §10
# [11] = test system: Streptococcus agalactiae; assay: MIC, agar dilution, Streptococcus agalactiae; conditions: Streptococcus agalactiae, read-out: MIC
# Procedure: as §1, §2, §3, §4, §5, §6, §7, §8, §9, §10
# [12] = test system: Staphylococcus aureus; assay: MIC, agar dilution, Staphylococcus aureus; conditions: Staphylococcus aureus, read-out: MIC
# Procedure: as §1, §2, §3, §4, §5, §6, §7, §8, §9, §10
# [13] = test system: Escherichia coli; assay: MIC, agar dilution, Escherichia coli; conditions: Escherichia coli, read-out: MIC
# Procedure: as §1, §2, §3, §4, §5, §6, §7, §8, §9, §10
# [14] = test system: Pasteurella hemolytica; assay: MIC (minimum inhibitory concentration), agar dilution, Pasteurella hemolytica; conditions: Pasteurella, read-out: MIC
# Procedure: as §1, §2, §3, §4, §5, §6, §7, §8, §9, §10
# [15] = test system: Pasteurella multocida; assay: MIC, agar dilution, Pasteurella multocida; conditions: Pasteurella multocida; strain UC9581; read-out: MIC
# Procedure: as §1, §2, §3, §4, §5, §6, §7, §8, §9, §10
# [16] = test system: Pseudomonas aeruginosa; assay: MIC, agar dilution, Pseudomonas aeruginosa; conditions: Pseudomonas aeruginosa; strain ATCC27853; read-out: MIC
# Procedure: as §1, §2, §3, §4, §5, §6, §7, §8, §9, §10
# [17] = test system: Streptococcus dysgalactiae; assay: MIC, agar dilution, Streptococcus dysgalactiae; conditions: Streptococcus dysgalactiae; strain UC251; read-out: MIC
# Procedure: as §1, §2, §3, §4, §5, §6, §7, §8, §9, §10
smiles,measurement,setting,value
"CO/N=C(\C(=O)N[C@@H]1C(=O)N2C(C(=O)O)=C(CSSCC3=C(C(=O)O)N4C(=O)[C@@H](NC(=O)/C(=N\OC)c5csc(N)n5)[C@H]4SC3)CS[C@H]12)c1csc(N)n1 [Example 5, 1,1-bis-(7β)-(2-(2-amino-1,3-thiazol-4-yl)-(Z)-2-(methoxyimino)acetamido-4-carboxy-3-cephem-3-yl)dimethyldisulfide]",MIC,[1],0.25 µg/mL
same,MIC,[2],≤ 0.06 µg/mL
same,MIC,"[3]; CHOLERAESUIS / UC6073, strain UC6073",4 µg/mL
same,MIC,"[3]; CHOLERAESUIS / UC6077, strain UC6077",8 µg/mL
same,MIC,[4],≤ 0.06 µg/mL
same,MIC,[5]; strain UC3946,0.25 µg/mL
same,MIC,[5]; strain UC6159,16 µg/mL
same,MIC,"[6]; TYPHIMURIUM / UC6162, strain UC6162",2 µg/mL
same,MIC,"[6]; TYPHIMURIUM / UC6164, strain UC6164",2 µg/mL
same,MIC,[7],> 32 µg/mL
same,MIC,[8],≤ 0.06 µg/mL
same,MIC,[9],> 32 µg/mL
same,MIC,[10],> 32 µg/mL
same,MIC,[11]; strain UC3947,≤ 0.06 µg/mL
same,MIC,[11]; strain UC6892,≤ 0.06 µg/mL
same,MIC,[12]; strain UC6093,16 µg/mL
same,MIC,[12]; strain UC6097,16 µg/mL
same,MIC,[12]; strain UC9203,16 µg/mL
same,MIC,[13]; strain UC3784,2 µg/mL
same,MIC,[13]; strain UC6720,2 µg/mL
same,MIC,[13]; strain UC9670,2 µg/mL
same,MIC,[14]; strain UC6531,≤ 0.06 µg/mL
same,MIC,[14]; strain UC6532,≤ 0.06 µg/mL
same,MIC,[14]; strain UC9582,≤ 0.06 µg/mL
same,MIC,[15],≤ 0.06 µg/mL
same,MIC,[16],> 32 µg/mL
same,MIC,[17],≤ 0.06 µg/mL
